Where two headings read alike, the source gives them in different places.
Experiments:
[1] = system: S. aureus CC398 (in house strain); assay: Broth microdilution (MIC/MBC); assay type: cell-based; settings: Staphylococcus aureus; CC398, veterinary clinical isolate
[2] = system: S. aureus ATCC BAA-1556; assay: Broth microdilution (MIC/MBC); assay type: cell-based; settings: Staphylococcus aureus, ATCCBAA1556; ATCC BAA-1556, human clinical isolate
[3] = system: Enterococcus faecalis JEO72G7B; assay: Broth microdilution (MIC/MBC); assay type: cell-based; settings: veterinary clinical isolate
[4] = system: three Gram-negative pathogenic bacteria; assay: Broth microdilution, summary over Gram-negative isolates; assay type: cell-based
[5] = system: Escherichia coli mutant [wp2 (pKM101)]
[6] = system: Cutibacterium acnes P10140156 (in house strain); assay: Broth microdilution (MIC/MBC), anaerobic; assay type: cell-based
[7] = system: Staphylococcus epidermidis RP62a; assay: Broth microdilution (MIC/MBC); assay type: cell-based; settings: human clinical isolate
[8] = system: eight Gram-positive pathogenic bacteria; assay: Broth microdilution, summary over Gram-positive isolates; assay type: cell-based
[9] = system: S. aureus ATCC BAA-1556; assay: Broth microdilution with 20% human serum; assay type: cell-based, Staphylococcus aureus
Experimental: (§1) In addition, whether serum proteins affected the activity of JBC 1847 against three S. aureus strains (USA300 JE2, ATCC BAA-1556 and CC398 in house strain) was investigated. Broth microdilution assays analog to previously described, with a 20% human serum (Sigma-Aldrich, Brøndby, Denmark) concentration were carried for three S. aureus strains (Table 1). MIC and MBC values were determined as previously described.

[10] = system: S. aureus USA300 JE2; assay: Broth microdilution with 20% human serum; assay type: cell-based, Staphylococcus aureus
Experimental: as §1

[11] = system: S. aureus CC398 in house strain; assay: Broth microdilution with 20% human serum; assay type: cell-based, Staphylococcus aureus
Experimental: as §1

[12] = system: MRSA USA300; assay: Transmission electron microscopy; assay type: cell-based, Staphylococcus aureus; settings: concentration corresponding to the MIC, 1 h, vs untreated control
Experimental: To elucidate the interaction between JBC 1847 and MRSA USA300, transmission electron microscopy (TEM) was carried out. Bacterial cultures were inoculated in 10 ml MHB and cultivated at 37°C for 5 h, with shaking, until mid-exponential growth phase ([…]). […] An untreated control was also prepared. The five samples were placed on ice until being prepared for TEM. This included a fixation step in 2% glutaraldehyde in 0.15 M sodium phosphate buffer (pH 7.2). Subsequently, the fixed cells were washed three times and postfixed with 0.2% OsO4 (osmium tetroxide) in H2O/0.15 M sodium phosphate buffer (pH 7.2) for 1 h. The samples were then dehydrated with graded acetone, and then embedded in epoxy resin. Ultrathin sections of the samples were prepared using Formvar-coated copper grids, which were stained using 3% uranyl acetate. The samples were placed in a Philips CM 100 Transmission EM (Philips, Eindhoven, Netherlands) and exposed to 120 keV electron energy.

[13] = system: five bacterial tester strains; assay: Ames test, overall evaluation (five tester strains); assay type: cell-based; settings: in general
Text: In this reverse mutation assay, five bacterial tester strains recommended by The Organization for Economic Cooperation and Development (OECD), were exposed to JBC 1847 in presence and absence of a metabolic activation system (S9) obtained from rat liver extract ([Maron and Ames, 1983]; [Levy et al., 2019]). The characteristics of the four Salmonella typhimurium mutants (TA98, TA100, TA1535, TA1537) and a single Escherichia coli mutant [wp2 (pKM101)] have been described by [Mortelmans and Zeiger (2000)] and [Levy et al. (2019)]. Prior to testing, the genotypes of all strains were confirmed as previously described ([Mortelmans and Zeiger, 2000]), and JBC 1847 was tested in various concentrations (1.5, 4, 10, 25, 64, 160, 400, and 1,000 μg/well) whereas DMSO served as negative control. As positive controls, five mutagenic compounds were applied in various concentrations (Supplementary Material). The Ames test was performed as described in Supplementary Material where acceptance criteria for the test results can also be found. To evaluate the test results, the mutagenicity ratio (MR) was calculated and interpreted as in previous studies ([Pah and Lakhani, 2012]; [Wang et al., 2018]). The MR was calculated as MR = x/xn. Here, x was the number of reverse mutated colonies exposed to JCB 1847 whereas xn was the number of reverse mutated colonies in the negative controls. […]

[14] = system: Salmonella typhimurium TA1535
[15] = system: S. epidermidis 105 (in house strain); assay: Broth microdilution (MIC/MBC); assay type: cell-based; settings: Staphylococcus epidermidis; strain 105, human clinical isolate
[16] = 20% human serum vs assay without serum
[17] = Staphylococcus aureus, ATCCBAA1556, 20% human serum
[18] = Staphylococcus aureus, 20% human serum

`CC(C)=CCCC(C)CC[N+](C)(C)CCCN1c2ccccc2Sc2ccccc21` (stereo not drawn) [JBC 1847] was tested, and the MBC [1] was 0.5 µg/mL, the MIC [1] was 0.5 µg/mL and the MBC [2] was 0.5 µg/mL. For the same compound, the MIC [2] was 0.5 µg/mL, the MBC [3] was 1 µg/mL and the MIC [3] was 1 µg/mL. The “MIC values (range over isolates)” value [4] was 8 to 32 µg/mL, the “Mean number of reverse mutated colonies” value ([5]; + S9, 1.5 μg/well) was 51.33 ± 12.86 and the “Mean number of reverse mutated colonies” value ([5]; + S9, 4 μg/well) was 40.67 ± 9.07. The “Mean number of reverse mutated colonies” value ([5]; + S9, 10 μg/well) was 40.67 ± 13.32, the “Mean number of reverse mutated colonies” value ([5]; + S9, 25 μg/well) was 9.67 ± 2.08 and the “Mean number of reverse mutated colonies” value ([5]; + S9, 64 μg/well) was 0.0. The “Mean number of reverse mutated colonies” value ([5]; −S9, 1.5 μg/well) was 33.00 ± 2.65, the “Mean number of reverse mutated colonies” value ([5]; −S9, 4 μg/well) was 39.33 ± 5.69 and the “Mean number of reverse mutated colonies” value ([5]; −S9, 10 μg/well) was 17.33 ± 7.09. For the same compound, the “Mean number of reverse mutated colonies” value ([5]; −S9, 64 μg/well) was 0.0, the MBC ([6]; BHI agar with 1% L-cystein) was 0.5 to 1 µg/mL and the MIC ([6]; BHI with 1% L-cysteine) was 0.5 to 1 µg/mL. For the same compound, the MIC [7] was 0.5 µg/mL, the “MIC values (range over isolates)” value [8] was 0.5 to 2 µg/mL and the “Increase in MBC with human serum” value [9, 16] was 128 fold. For the same compound, the “Increase in MIC with human serum” value [9, 16] was 128 fold, the MBC [9, 17] was 64 µg/mL and the MIC [9, 17] was 64 µg/mL. The “Increase in MBC with human serum” value [10, 16] was 128 fold, the “Increase in MIC with human serum” value [10, 16] was 128 fold and the MBC [10, 18] was 64 µg/mL. The MIC [10, 18] was 64 µg/mL, the “Increase in MBC with human serum” value [11, 16] was 128 fold and the “Increase in MIC with human serum” value [11, 16] was 128 fold. The MBC [11, 18] was 64 µg/mL, the MIC [11, 18] was 64 µg/mL and the “TEM appearance of bacterial cells” value [12] was “clearly lysed and the plasma membrane destroyed”. The “Mutagenicity ratio (MR)” value ([13]; all strains, MR ≥ 2 interpreted as positive) was < 2, the Ames test result ([13]; presence and absence of S9) was “non-mutagenic” and the “Mean number of reverse mutated colonies” value ([14]; TA1535, + S9, 1.5 μg/well) was 24.33 ± 3.21. The “Mean number of reverse mutated colonies” value ([14]; TA1535, + S9, 4 μg/well) was 26.67 ± 2.08, the “Mean number of reverse mutated colonies” value ([14]; TA1535, + S9, 10 μg/well) was 18.00 ± 5.57 and the “Mean number of reverse mutated colonies” value ([14]; TA1535, + S9, 64 μg/well) was 0.0. The “Mean number of reverse mutated colonies” value ([14]; TA1535, −S9, 1.5 μg/well) was 24.33 ± 3.21, the “Mean number of reverse mutated colonies” value ([14]; TA1535, −S9, 4 μg/well) was 26.67 ± 2.08 and the “Mean number of reverse mutated colonies” value ([14]; TA1535, −S9, 10 μg/well) was 18.00 ± 5.57. The “Mean number of reverse mutated colonies” value ([14]; TA1535, −S9, 25 μg/well) was 0.0, the “Mean number of reverse mutated colonies” value ([14]; TA1535, −S9, 64 μg/well) was 0.0 and the MIC [15] was 0.5 µg/mL.

Source: article PMC7555839 (Frontiers in Microbiology, 2020)
